Assay results as given in patent publication US20050176655A1, “Novel macrolide derivatives havaing effect of potentiating antifungal activity” (priority 2002, published 2005).

Assays:
[1] = test system: Candida albicans ATCC 64548; test: Paper disk method, enhancing action for activities of azole antifungal agents; type: cell-based; conditions: 24 hours; for Inhibition activity (inhibition ring mm) C. albicans ATCC 64548 GYM / Transparency of the inhibition ring C. albicans ATCC 64548 GYM: miconazole 0.03 μg/ml; for Inhibition activity (inhibition ring mm) C. albicans ATCC 64548 GYF / Transparency of the inhibition ring C. albicans ATCC 64548 GYF: fluconazole 0.5 μg/ml
Protocol: (§1) Test organisms used were Candida albicans ATCC 64548, fluconazole resistant Candida albicans ATCC 64550 and Aspergillus niger ATCC 6275. Candida spp. were cultured in Waksman broth (glucose 2.0%, peptone 0.5%, dry yeast 0.3%, meat extract 0.5%, NaCl 0.5% and CaCO3 0.3%, pH 7.0) at 27° C. for 40 hours, then 0.1% thereof was inoculated on GY agar medium (glucose 1.0%, yeast extract 0.5% and agar 0.8%, pH 6.0). Spore suspension 0.2% of Aspergillus niger ATCC 6275 was inoculated on GY agar medium.
(§2) Azole antifungal agents used were miconazole (Sigma Inc., the U.S.) and fluconazole (ICN Pharmaceuticals, Inc., the U.S.), and were added at concentrations without affecting growth on each test organisms follows.
Candida albicans ATCC 64548: miconazole 0.03 μg/ml or fluconazole 0.5 μg/ml.
(§3) In the above medium, a medium added with miconazole to GY medium (control) is designated as GYM, and a medium added with fluconazole is designated as GYF. Activities were assessed by means of paper disk method (thickness: 8 mm, ADVANTEC MFS INC., Japan). Diameter of inhibition ring is expressed with mm unit after culturing Candida spp. for 24 hours and Aspergillus niger ATCC 6275 for 48 hours. Transparency of the inhibition ring is assessed with 5 degrees of A, B, C, D and E (transparence<A<B<C<D<E<opaque).

[2] = test system: Aspergillus niger ATCC 6275; test: as above; type: cell-based; conditions: 48 hours; for Inhibition activity (inhibition ring mm) A. niger ATCC 6275 GYF / Transparency of the inhibition ring A. niger ATCC 6275 GYF: fluconazole 10 μg/ml
Protocol: as §1, §2
Aspergillus niger ATCC 6275: miconazole 0.1 μg/ml or fluconazole 10 μg/ml.
as §3

[3] = 100 μg/8 mm disk, GYM, miconazole 0.1 μg/ml
[4] = 50 μg/8 mm disk, GY medium (control, no azole)

Row | Compound | Inhibition activity (inhibition ring mm) C. albicans ATCC 64548 GYM ([1]; 10 μg/8 mm disk) | Transparency of the inhibition ring C. albicans ATCC 64548 GYM ([1]; 10 μg/8 mm disk) | Inhibition activity (inhibition ring mm) C. albicans ATCC 64548 GYM ([1]; 50 μg/8 mm disk) | Transparency of the inhibition ring C. albicans ATCC 64548 GYM ([1]; 50 μg/8 mm disk) | Inhibition activity (inhibition ring mm) C. albicans ATCC 64548 GYM ([1]; 100 μg/8 mm disk) | Transparency of the inhibition ring C. albicans ATCC 64548 GYM ([1]; 100 μg/8 mm disk) | further results
1 | 2′,4″,13-Tri-O-anhydro-pseudoerythromycin A 6,9-hemiketal [Compound 719] | 9 mm | E (Growth of test organism was inhibited 35% or less.) | 10 mm | E (Growth of test organism was inhibited 35% or less.) | 13 mm | E (Growth of test organism was inhibited 35% or less.) | –
2 | CCC(O)C(C)(O)C1OC(=O)C(C)C(OC2CC(C)(OC)C(O)C(C)O2)C(C)C(OC2OC(C)CC(N(C)CCN(C)C3CC(C)OC(OC4C(C)C(OC5CC(C)(OC)C(O)C(C)O5)C(C)C(=O)OC(C(C)(O)C(O)CC)C(C)C5=C(C)CC4(C)O5)C3O)C2O)C2(C)CC(C)=C(O2)C1C (centres unmarked) [Compound 741, 3′-de-N-methyl-3′-N-{-amino-(3′-de-N-methyl-anhydro-pseudoerythromycin A 6,9-hemiketal)}ethyl-anhydro-pseudoerythromycinA 6,9-hemiketal] | – | – | – | – | 14 mm | D (Growth of test organism was inhibited 35% or more and 55% or less.) | –
3 | CCC1OC(=O)C(C)C(OC2CC(C)(OC)C(O)C(C)O2)C(C)C(OC2OC(C)CC(N(C)CCN(C)C3CC(C)OC(OC4C(C)C(OC5CC(C)(OC)C(O)C(C)O5)C(C)C(=O)OC(CC)C(C)(O)C(O)C(C)C(=O)C(C)CC4(C)O)C3O)C2O)C(C)(O)CC(C)C(=O)C(C)C(O)C1(C)O (centres unmarked) [Compound 752, 3′-de-N-methyl-3′-N-{2-amino-(3′-de-N-methyl-erythromycin A)}ethyl-erythromycin A] | – | – | – | – | 12 mm | E (Growth of test organism was inhibited 35% or less.) | Inhibition activity (inhibition ring mm) A. niger ATCC 6275 GYF ([2]; 50 μg/8 mm disk): 17 mm; Transparency of the inhibition ring A. niger ATCC 6275 GYF ([2]; 50 μg/8 mm disk): E (Growth of test organism was inhibited 35% or less.)
4 | CCC1OC(=O)C(C)C(OC2CC(C)(OC)C(O)C(C)O2)C(C)C(OC2OC(C)CC(N(C)CCN(C)C3CC(C)OC(OC4C(C)C(OC5CC(C)(OC)C(O)C(C)O5)C(C)C(=O)OC(CC)C(C)(O)C(O)C(C)C(=O)C(C)CC4(C)OC)C3O)C2O)C(C)(OC)CC(C)C(=O)C(C)C(O)C1(C)O (centres unmarked) [Compound 753, 3′-de-N-methyl-3′-N-{2-amino-(3′-de-N-methyl-clarythromycin A)}ethyl-clarythromycin] | 17 mm | C (Growth of test organism was inhibited 55% or more and 75% or less.) | 22 mm | C (Growth of test organism was inhibited 55% or more and 75% or less.) | – | – | Inhibition activity (inhibition ring mm) A. niger ATCC 6275 GYM [2, 3]: 13 mm; Transparency of the inhibition ring A. niger ATCC 6275 GYM [2, 3]: E (Growth of test organism was inhibited 35% or less.)
5 | CCC1OC(=O)C(C)C(OC2CC(C)(OC)C(O)C(C)O2)C(C)C(OC2OC(C)CC(N(C)CC=CCN(C)C3CC(C)OC(OC4C(C)C(OC5CC(C)(OC)C(O)C(C)O5)C(C)C(=O)OC(CC)C(C)(O)C(O)C(C)C(=O)C(C)CC4(C)O)C3O)C2O)C(C)(O)CC(C)C(=O)C(C)C(O)C1(C)O (centres unmarked) [Compound 757, 3′-de-N-methyl-3′-N-{4-amino-(3′-de-N-methyl-erythromycin A)}-2(E) -butenyl-erythromycin A] | – | – | – | – | 18 mm | D (Growth of test organism was inhibited 35% or more and 55% or less.) | Inhibition activity (inhibition ring mm) C. albicans ATCC 64548 GYF ([1]; 100 μg/8 mm disk): 17 mm; Transparency of the inhibition ring C. albicans ATCC 64548 GYF ([1]; 100 μg/8 mm disk): E (Growth of test organism was inhibited 35% or less.); Inhibition activity (inhibition ring mm) A. niger ATCC 6275 GY [2, 4]: 10 mm; Transparency of the inhibition ring A. niger ATCC 6275 GY [2, 4]: E (Growth of test organism was inhibited 35% or less.)
6 | CCC1OC(=O)C(C)C(OC2CC(C)(OC)C(O)C(C)O2)C(C)C(OC2OC(C)CC(N(C)CC=CCN(C)C3CC(C)OC(OC4C(C)C(OC5CC(C)(OC)C(O)C(C)O5)C(C)C(=O)OC(CC)C(C)(O)C(O)C(C)C(=O)C(C)CC4(C)OC)C3O)C2O)C(C)(OC)CC(C)C(=O)C(C)C(O)C1(C)O (centres unmarked) [Compound 758, 3′-de-N-methyl-3′-N-{4-amino-(3′-de-N-methyl-clarythromycin A)}-2(E)-butenyl-clarythromycin A] | 11 mm | E (Growth of test organism was inhibited 35% or less.) | 12 mm | D (Growth of test organism was inhibited 35% or more and 55% or less.) | – | – | Inhibition activity (inhibition ring mm) C. albicans ATCC 64548 GYF ([1]; 100 μg/8 mm disk): 15 mm; Transparency of the inhibition ring C. albicans ATCC 64548 GYF ([1]; 100 μg/8 mm disk): E (Growth of test organism was inhibited 35% or less.)
7 | CCC1OC(=O)C(C)C(OC2CC(C)(OC)C(O)C(C)O2)C(C)C(OC2OC(C)CC(N(C)C)C2O)C(C)(O)CC(C)C(=NOCC=CCON=C2C(C)CC(C)(O)C(OC3OC(C)CC(N(C)C)C3O)C(C)C(OC3CC(C)(OC)C(O)C(C)O3)C(C)C(=O)OC(CC)C(C)(O)C(O)C2C)C(C)C(O)C1(C)O (centres unmarked) [Compound 759, 9(E)-4-{9(E)-oxime-erythromycin A}-2-butenyloxime-erythromycin A] | – | – | – | – | 13 mm | D (Growth of test organism was inhibited 35% or more and 55% or less.) | –
8 | CCC1OC(=O)C(C)C(OC2CC(C)(OC)C(O)C(C)O2)C(C)C(OC2OC(C)CC(N(C)C)C2O)C(C)(O)CC(C)C(=NOCC=CCN2CCN(CC=CCON=C3C(C)CC(C)(O)C(OC4OC(C)CC(N(C)C)C4O)C(C)C(OC4CC(C)(OC)C(O)C(C)O4)C(C)C(=O)OC(CC)C(C)(O)C(O)C3C)CC2)C(C)C(O)C1(C)O (centres unmarked) [Compound 760, 9(E)-4-piperazine-{N-4-(9(E)-oxime-erythromycin A-2(E)butenyl)}-2-butenyloxime-erythromycin A] | 10 mm | E (Growth of test organism was inhibited 35% or less.) | 14 mm | D (Growth of test organism was inhibited 35% or more and 55% or less.) | – | – | Inhibition activity (inhibition ring mm) A. niger ATCC 6275 GYF ([2]; 10 μg/8 mm disk): 15 mm; Transparency of the inhibition ring A. niger ATCC 6275 GYF ([2]; 10 μg/8 mm disk): E (Growth of test organism was inhibited 35% or less.); Inhibition activity (inhibition ring mm) A. niger ATCC 6275 GYF ([2]; 50 μg/8 mm disk): 16 mm; Transparency of the inhibition ring A. niger ATCC 6275 GYF ([2]; 50 μg/8 mm disk): E (Growth of test organism was inhibited 35% or less.)
9 | CCC1OC(=O)C(C)C(OC2CC(C)(OC)C(O)C(C)O2)C(C)C(OC2OC(C)CC(N(C)C)C2O)C(C)(O)CC(C)C(=NOCC=CCNCCNCC=CCON=C2C(C)CC(C)(O)C(OC3OC(C)CC(N(C)C)C3O)C(C)C(OC3CC(C)(OC)C(O)C(C)O3)C(C)C(=O)OC(CC)C(C)(O)C(O)C2C)C(C)C(O)C1(C)O (centres unmarked) [Compound 761] | – | – | – | – | 14 mm | E (Growth of test organism was inhibited 35% or less.) | –
10 | CCC1OC(=O)C(C)C(OC2CC(C)(OC)C(O)C(C)O2)C(C)C(OC2OC(C)CC(N(C)C)C2O)C(C)(O)CC(C)C(=NOCC=CCN2CCNCC2)C(C)C(O)C1(C)O (centres unmarked) [Compound 762] | – | – | 13 mm | D (Growth of test organism was inhibited 35% or more and 55% or less.) | – | – | Inhibition activity (inhibition ring mm) A. niger ATCC 6275 GYF ([2]; 10 μg/8 mm disk): 14 mm; Transparency of the inhibition ring A. niger ATCC 6275 GYF ([2]; 10 μg/8 mm disk): E (Growth of test organism was inhibited 35% or less.); Inhibition activity (inhibition ring mm) A. niger ATCC 6275 GYF ([2]; 50 μg/8 mm disk): 15 mm; Transparency of the inhibition ring A. niger ATCC 6275 GYF ([2]; 50 μg/8 mm disk): E (Growth of test organism was inhibited 35% or less.)
11 | CCC1OC(=O)C(C)C(OC2CC(C)(OC)C(O)C(C)O2)C(C)C(OC2OC(C)CC(N(C)C)C2O)C(C)(O)CC(C)C(=NOCCCCON=C2C(C)CC(C)(O)C(OC3OC(C)CC(N(C)C)C3O)C(C)C(OC3CC(C)(OC)C(O)C(C)O3)C(C)C(=O)OC(CC)C(C)(O)C(O)C2C)C(C)C(O)C1(C)O (centres unmarked) [Compound 764, 9(E)-4-{9(E)-oxime-erythromycin A}-2(E)buthyloxime-erythromycin A] | – | – | 9 mm | E (Growth of test organism was inhibited 35% or less.) | – | – | –
